Literature values as cited in patent publication US20180148781A1, “Antioxidant Compounds For Cleave Formulations That Support Long Reads In Sequencing-By-Synthesis” (QIAGEN Waltham, Inc., priority 2016, published 2018).

Conditions: pH 7.4

O=C1O[C@H]([C@@H](O)CO)C(O)=C1O [Ascorbic Acid]
fraction present in mono-anionic form as ascorbate: 99.95%
